Test results published in BindingDB's records for doi:10.3109/14756366.2011.572879 (Ataturk University, 2012).
Counter-ions that a name gives are not always drawn.

Biological target: T1, Glutathione reductase, mitochondrial (Homo sapiens, UniProt P00390)
T1 sequence (P00390 whole entry): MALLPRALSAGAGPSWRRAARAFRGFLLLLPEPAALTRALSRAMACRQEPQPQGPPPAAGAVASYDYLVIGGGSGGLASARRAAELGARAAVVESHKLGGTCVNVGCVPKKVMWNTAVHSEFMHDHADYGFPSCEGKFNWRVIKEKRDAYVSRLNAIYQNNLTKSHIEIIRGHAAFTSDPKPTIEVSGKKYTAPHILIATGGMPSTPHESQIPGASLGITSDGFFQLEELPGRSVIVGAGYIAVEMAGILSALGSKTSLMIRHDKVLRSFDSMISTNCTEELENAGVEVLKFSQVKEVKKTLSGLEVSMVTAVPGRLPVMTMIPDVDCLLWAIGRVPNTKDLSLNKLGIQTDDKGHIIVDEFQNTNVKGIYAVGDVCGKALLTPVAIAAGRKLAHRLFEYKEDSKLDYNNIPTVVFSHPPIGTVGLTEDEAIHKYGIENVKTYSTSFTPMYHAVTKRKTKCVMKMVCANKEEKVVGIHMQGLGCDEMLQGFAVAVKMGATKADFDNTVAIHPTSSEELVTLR
Assay: Activity Assay
Settings: pH 8; 25 °C
Protocol: The assay system contained 40 mM Tris-HCl buffer, pH 8.0, including 0.8 mM EDTA, 1 mM GSSG and 0.1 mM NADPH in 1 mL total reaction volume. The activity was measured by monitoring the decrease in absorbance at 340 nm due to the oxidationof NADPH at 25°C. One enzyme unit is defined as the oxidation of […] NADPH per min under the assay conditions.

IC50 [µM] | Ki [µM] | Compound
12 | 0.8 | CN1CCC(=C2c3ccccc3CC(=O)c3sccc32)CC1 [(Z)-2-butenedioate;10-(1-methyl-4-piperidinylidene)-5H-benzo[1,2]cyclohepta[3,4-b]thiophen-4-one]
– | 28800 | O=C(O)CN(CCN(CC(=O)O)CC(=O)O)CCN(CC(=O)O)CC(=O)O [Gadopentetic acid]
990 | 434 | OC(CNc1ccccn1)c1ccccc1 (stereo not given) [Phenyramidol-HCl]
